From US9320271B2, “Microbial composition” (Rohm and Haas Company, priority 2011, dated 2016)
Several values for one entry are separate records, joined by “and”; a condition that tells them apart may be missing. Equal entries are not always repeated.

Tests used:
[1] = tested on: Escherichia coli (E. coli—ATCC #10536); assay: Synergy test: high resolution MBC microtiter plate assay, phosphate buffer containing 35% dipropylene glycol, 15 seconds contact; type: cell-based; details: E. coli 10536; for MBC of the component acting alone (QA / QB; Qa or Qb where the other component is 0): complete kill in 15 seconds
[2] = tested on: Escherichia coli (E. coli—ATCC #10536); assay: Automated assessment of efficacy in surfactant base (2.85% sodium cocoyl glycinate and 1.85% sodium lauroamphoacetate, pH 10.0), 15 seconds exposure; type: cell-based; details: for No. of replicates showing growth (out of 4) / Δ OD 450 nm = OD450 (time = 16 hours) − OD450 (time zero), Mean / Δ OD 590 nm OD590 (time = 16 hours) − OD590 (time zero), Mean: alone, model surfactant solution

## Cc1ccc(C(C)C)c(O)c1O [3-isopropyl-6-methylbenzene-1,2-diol]
[1]; at Qa and Qb, less than one = synergy
  SI (Synergy Index): 1.00
[1]
  MBC of the component acting alone (QA / QB; Qa or Qb where the other component is 0): 1.0 weight % and 0.8 weight %
[1]; listed as 3-isopronyl-6-methylbenzene-1,2-diol
  MBC of the component acting alone (QA / QB; Qa or Qb where the other component is 0): 0.8 weight %
[2]; 0.175% w/v
  No. of replicates showing growth (out of 4): 4
  Δ OD 450 nm = OD450 (time = 16 hours) − OD450 (time zero), Mean: −0.51
  Δ OD 590 nm OD590 (time = 16 hours) − OD590 (time zero), Mean: 0.53
[2]; 0.2% w/v
  No. of replicates showing growth (out of 4): 4
  Δ OD 450 nm = OD450 (time = 16 hours) − OD450 (time zero), Mean: −0.53
  Δ OD 590 nm OD590 (time = 16 hours) − OD590 (time zero), Mean: 0.53
[2]; […] w/v
  No. of replicates showing growth (out of 4): 4
  Δ OD 450 nm = OD450 (time = 16 hours) − OD450 (time zero), Mean: −0.50
  Δ OD 590 nm OD590 (time = 16 hours) − OD590 (time zero), Mean: 0.56
[2]; in 2.85% sodium cocoyl glycinate + 1.85% sodium lauroamphoacetate solution at pH 10, E. coli
  MBC (minimum biocidal concentration): >0.2 % w/v
